Reference: patent US20200369728A1, “PEPTIDOMIMETIC MACROCYCLES AND USES THEREOF” (Aileron Therapeutics, Inc., priority 2015, published 2020)
Bridge positions count the residues as written; N and C are the ends. Square brackets hold non-standard residues; d marks the D form. Peptide text beside a SMILES is read from it. Phe(4-COOH) = N[C@@H](Cc1ccc(C(=O)O)cc1)C(=O)O; Phe(3,4-F2) = N[C@@H](Cc1ccc(F)c(F)c1)C(=O)O; R8 = C=CCCCCCC[C@@](C)(N)C(=O)O; Cba = N[C@@H](CC1CCC1)C(=O)O; S5 = C=CCCC[C@](C)(N)C(=O)O; Nle = CCCC[C@H](N)C(=O)O

Key:
RKO = assay: Cell viability assay (MTT), RKO; conditions: read-out: RKO EC50 (72 h)
Caspase 3 = Caspase 3 detection assay in SJSA1 cells; format: cell-based; conditions: SJSA1, 48 h, Caspase 3 activation over DMSO-treated cells
SJSA-1 cells = assay: Cell lysis by peptidomimetic macrocycles (LDH release); format: cell-based; conditions: SJSA-1, 1 h
Outline: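 SJSA-1 cells plated the day before, switched to RPMI with 1% FBS, then exposed 1 h at 37 °C to macrocycle at final 50 μM to 6.25 μM in 0.5% DMSO. LDH released into the supernatant was measured by kit. Controls: 0.5% DMSO (non-lytic), 10 μM melittin and 1% Triton X-100 (lytic).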

Compound: CC(C)C[C@H](NC(=O)CN(C)C)C(=O)N[C@H](C(=O)N[C@@H](Cc1ccccc1)C(=O)N[C@]1(C)CCCCCC/C=C/CCC[C@@](C)(C(=O)N[C@@H](C)C(=O)N[C@@H](C)C(=O)N[C@@H](C)C(=O)N[C@@H](C)C(=O)N[C@@H](C)C(=O)N[C@H](C)C(N)=O)NC(=O)[C@H](CC(C)C)NC(=O)[C@H](CCC(N)=O)NC(=O)[C@H](C)NC(=O)[C@H](Cc2c[nH]c3ccccc23)NC(=O)[C@H](Cc2ccc(O)cc2)NC(=O)[C@H](C)NC1=O)[C@@H](C)O [compound 437]
- EC50 (RKO): < 5 µM

Compound: CCCC[C@H](NC(=O)[C@H](C)NC(=O)[C@H](C)NC(=O)[C@]1(C)CCCC=CCCCCCC[C@@](C)(NC(=O)[C@H](Cc2ccccc2)NC(=O)[C@@H](NC(=O)[C@H](CC(C)C)NC(=O)CN(C)C)[C@@H](C)O)C(=O)N[C@@H](C)C(=O)N[C@@H](Cc2ccc(O)cc2)C(=O)N[C@@H](Cc2c[nH]c3ccccc23)C(=O)N[C@@H](C)C(=O)N[C@@H](CCC(N)=O)C(=O)N[C@@H](CC(C)C)C(=O)N1)C(=O)N[C@@H](C)C(N)=O (single isomer, unassigned) [compound 442]
- EC50 (RKO): < 5 µM

Compound: CC(=O)N[C@@H](CC(C)C)C(=O)N[C@H](C(=O)N[C@@H](Cc1ccccc1)C(=O)N[C@]1(C)CCCCCCCCCCC[C@@](C)(C(=O)N[C@@H](C)C(=O)N[C@@H](C)C(=O)N[C@@H](C)C(=O)N[C@@H](C)C(=O)N[C@@H](C)C(=O)N[C@H](C)C(N)=O)NC(=O)[C@H](CC(C)C)NC(=O)[C@H](CCC(N)=O)NC(=O)[C@H](C)NC(=O)[C@H](Cc2c[nH]c3ccccc23)NC(=O)[C@H](Cc2ccc(O)cc2)NC(=O)[C@H](CCC(=O)O)NC1=O)[C@@H](C)O [compound 445]
- EC50 (RKO): 5 to 15 µM

Compound: CCCC[C@H](NC(=O)[C@H](C)NC(=O)[C@H](C)NC(=O)[C@]1(C)CCCC=CCCCCCC[C@@](C)(NC(=O)[C@H](Cc2ccccc2)NC(=O)[C@@H](NC(=O)[C@H](CC(C)C)NC(C)=O)[C@@H](C)O)C(=O)N[C@@H](C)C(=O)N[C@@H](Cc2ccc(O)cc2)C(=O)N[C@@H](Cc2c[nH]c3ccccc23)C(=O)NC(C)(C)C(=O)N[C@@H](CCC(N)=O)C(=O)N[C@@H](CC(C)C)C(=O)N1)C(=O)N[C@@H](C)C(N)=O (single isomer, unassigned) [compound 390]
- EC50 (RKO): < 5 µM

Compound: CCCC[C@H](NC(=O)[C@H](C)NC(=O)[C@H](C)NC(=O)[C@]1(C)CCCCCCCCCCC[C@@](C)(NC(=O)[C@H](Cc2ccccc2)NC(=O)[C@@H](NC(=O)[C@H](CC(C)C)NC(C)=O)[C@@H](C)O)C(=O)N[C@@H](C)C(=O)N[C@@H](Cc2ccc(O)cc2)C(=O)N[C@@H](Cc2c[nH]c3ccccc23)C(=O)N[C@@H](C)C(=O)N[C@@H](CCC(N)=O)C(=O)N[C@@H](CC(C)C)C(=O)N1)C(=O)N[C@@H](C)C(N)=O [compound 444]
- EC50 (RKO): < 5 µM

Compound: CSCC[C@H](NC(=O)[C@H](C)NC(=O)[C@H](CO)NC(=O)[C@]1(C)CCCC=CCCCCCC[C@@](C)(NC(=O)[C@H](Cc2ccccc2)NC(=O)[C@@H](NC(=O)[C@H](CC(C)C)NC(C)=O)[C@@H](C)O)C(=O)N[C@@H](C)C(=O)N[C@@H](Cc2ccc(O)cc2)C(=O)N[C@@H](Cc2c[nH]c3ccccc23)C(=O)N[C@@H](C)C(=O)N[C@@H](CCC(N)=O)C(=O)N[C@@H](CC(C)C)C(=O)N1)C(N)=O [compound 5] (Ac-LTF[R8]AYWAQL[S5]SAM-NH2; staple 4-11)
- EC50 (RKO): < 5 µM

Compound: CC(C)C[C@H](NC(=O)CN(C)C)C(=O)N[C@H](C(=O)N[C@@H](Cc1ccccc1)C(=O)N[C@]1(C)CCCCCCC=CCCC[C@@](C)(C(=O)N[C@@H](CO)C(=O)N[C@@H](C)C(=O)N[C@@H](C)C(N)=O)NC(=O)[C@H](CC2CCC2)NC(=O)[C@H](CCC(N)=O)NC(=O)[C@H](C)NC(=O)[C@H](Cc2c[nH]c3ccccc23)NC(=O)[C@H](Cc2ccc(O)cc2)NC(=O)[C@H](CCC(=O)O)NC1=O)[C@@H](C)O [compound 435]
- EC50 (RKO): 15 to 30 µM

Compound: CC(C)C[C@H](NC(=O)CN(C)C)C(=O)N[C@H](C(=O)N[C@@H](Cc1ccccc1)C(=O)N[C@]1(C)CCCCCCC=CCCC[C@@](C)(C(=O)N[C@@H](C)C(=O)N[C@@H](C)C(=O)N[C@@H](C)C(=O)N[C@@H](C)C(=O)N[C@@H](C)C(=O)N[C@H](C)C(N)=O)NC(=O)[C@H](CC(C)C)NC(=O)[C@H](CCC(N)=O)NC(=O)[C@H](C)NC(=O)[C@H](Cc2c[nH]c3ccccc23)NC(=O)[C@H](Cc2ccc(O)cc2)NC(=O)[C@H](C)NC1=O)[C@@H](C)O (single isomer, unassigned) [compound 436]
- EC50 (RKO): < 5 µM

Compound: CCCC[C@H](NC(=O)[C@H](C)NC(=O)[C@H](C)NC(=O)[C@]1(C)CCCC=CCCCCCC[C@@](C)(NC(=O)[C@H](Cc2ccccc2)NC(=O)[C@@H](NC(=O)[C@H](CC(C)C)NC(C)=O)[C@@H](C)O)C(=O)N[C@@H](C)C(=O)N[C@@H](Cc2ccc(O)cc2)C(=O)N(C)[C@@H](Cc2c[nH]c3ccccc23)C(=O)N[C@@H](C)C(=O)N[C@@H](CCC(N)=O)C(=O)N[C@@H](CC(C)C)C(=O)N1)C(=O)N[C@@H](C)C(N)=O (single isomer, unassigned) [compound 386]
- EC50 (RKO): < 5 µM

Compound: CC[C@H](C)[C@H](NC(=O)[C@H](C)NC(=O)[C@H](C)NC(=O)[C@]1(C)CCCC=CCCCCCC[C@@](C)(NC(=O)[C@H](Cc2ccccc2)NC(=O)[C@@H](NC(=O)[C@H](CC(C)C)NC(=O)CN(C)C)[C@@H](C)O)C(=O)N[C@@H](CCC(=O)O)C(=O)N[C@@H](Cc2ccc(C(=O)O)cc2)C(=O)N[C@@H](Cc2c[nH]c3ccccc23)C(=O)N[C@@H](C)C(=O)N[C@@H](CCC(N)=O)C(=O)N[C@@H](CC2CCC2)C(=O)N1)C(=O)N[C@H](C)C(N)=O (single isomer, unassigned) [compound 440]
- EC50 (RKO): 15 to 30 µM

Compound: CCCC[C@H](NC(=O)[C@H](C)NC(=O)[C@H](CO)NC(=O)[C@]1(C)CCCC=CCCCCCC[C@@](C)(NC(=O)[C@H](Cc2ccc(F)c(F)c2)NC(=O)[C@@H](NC(=O)[C@H](CC(C)C)NC(C)=O)[C@@H](C)O)C(=O)N[C@@H](CCC(=O)O)C(=O)N[C@@H](Cc2ccc(O)cc2)C(=O)N[C@@H](Cc2c[nH]c3ccccc23)C(=O)N[C@@H](C)C(=O)N[C@@H](CCC(N)=O)C(=O)N[C@@H](CC2CCC2)C(=O)N1)C(=O)N[C@@H](C)C(N)=O [compound 243] (Ac-LT[Phe(3,4-F2)][R8]EYWAQ[Cba][S5]SA[Nle]A-NH2; staple 4-11)
- caspase 0.3 μM (Caspase 3): 1
- caspase 3 μM (Caspase 3): 2
- caspase 10 μM (Caspase 3): 5
- caspase 30 μM (Caspase 3): 23
- 6.25 μM % Lysed cells (1 h LDH) (SJSA-1 cells): 4%
- 25 μM % Lysed cells (1 h LDH) (SJSA-1 cells): 39%
- 50 μM % Lysed cells (1 h LDH) (SJSA-1 cells): 64%

Compound: CCCC[C@H](NC(=O)[C@H](C)NC(=O)[C@H](CO)NC(=O)[C@]1(C)CCCC=CCCCCCC[C@@](C)(NC(=O)[C@H](Cc2ccccc2)NC(=O)[C@@H](NC(=O)[C@H](CC(C)C)NC(C)=O)[C@@H](C)O)C(=O)N[C@@H](CCC(=O)O)C(=O)N[C@@H](Cc2ccc(C(=O)O)cc2)C(=O)N[C@@H](Cc2c[nH]c3ccccc23)C(=O)N[C@@H](C)C(=O)N[C@@H](CCC(N)=O)C(=O)N[C@@H](CC2CCC2)C(=O)N1)C(=O)N[C@@H](C)C(N)=O [compound 244] (Ac-LTF[R8]E[Phe(4-COOH)]WAQ[Cba][S5]SA[Nle]A-NH2; staple 4-11)
- caspase 0.3 μM (Caspase 3): 1
- caspase 3 μM (Caspase 3): 2
- caspase 10 μM (Caspase 3): 7
- caspase 30 μM (Caspase 3): 17
- 6.25 μM % Lysed cells (1 h LDH) (SJSA-1 cells): 0%
- 25 μM % Lysed cells (1 h LDH) (SJSA-1 cells): 0%
- 50 μM % Lysed cells (1 h LDH) (SJSA-1 cells): 4%

Compound: CC(=O)N[C@@H](CC(C)C)C(=O)N[C@H](C(=O)N[C@@H](Cc1ccccc1)C(=O)N[C@]1(C)CCCCCCC=CCCC[C@@](C)(C(=O)N[C@@H](CO)C(=O)N[C@@H](C)C(=O)N[C@@H](C)C(N)=O)NC(=O)[C@H](CC(C)C)NC(=O)[C@H](C)NC(=O)[C@H](C)NC(=O)[C@H](Cc2c[nH]c3ccccc23)NC(=O)[C@H](Cc2c[nH]cn2)NC(=O)[C@H](C)NC1=O)[C@@H](C)O [compound 197] (Ac-LTF[R8]AHWAAL[S5]SAA-NH2; staple 4-11)
- caspase 0.3 μM (Caspase 3): 1
- caspase 3 μM (Caspase 3): 1
- caspase 10 μM (Caspase 3): 10
- caspase 30 μM (Caspase 3): 20
- 6.25 μM % Lysed cells (1 h LDH) (SJSA-1 cells): 1%
- 25 μM % Lysed cells (1 h LDH) (SJSA-1 cells): −1%
- 50 μM % Lysed cells (1 h LDH) (SJSA-1 cells): −2%

Compound: CC(=O)N[C@@H](CC(C)C)C(=O)N[C@H](C(=O)N[C@@H](Cc1ccccc1)C(=O)N[C@]1(C)CCCCCCC=CCCC[C@@](C)(C(=O)N[C@@H](C)C(=O)N[C@@H](C)C(=O)N[C@H](C(=O)N[C@H](C)C(N)=O)C(C)C)NC(=O)[C@H](CC(C)C)NC(=O)[C@H](CCC(N)=O)NC(=O)[C@H](C)NC(=O)[C@H](Cc2c[nH]c3ccccc23)NC(=O)[C@H](Cc2ccc(O)cc2)NC(=O)[C@H](CCC(=O)O)NC1=O)[C@@H](C)O (single isomer, unassigned) [compound 221]
- caspase 0.3 μM (Caspase 3): 1
- caspase 3 μM (Caspase 3): 3
- caspase 10 μM (Caspase 3): 6
- caspase 30 μM (Caspase 3): 12
- 6.25 μM % Lysed cells (1 h LDH) (SJSA-1 cells): 3%
- 25 μM % Lysed cells (1 h LDH) (SJSA-1 cells): 3%
- 50 μM % Lysed cells (1 h LDH) (SJSA-1 cells): 11%

Compound: CC(=O)N[C@@H](CC(C)C)C(=O)N[C@H](C(=O)N[C@@H](Cc1ccccc1)C(=O)N[C@]1(C)CCCCCCC=CCCC[C@@](C)(C(=O)N[C@@H](CO)C(=O)N[C@@H](C)C(=O)N[C@@H](CO)C(N)=O)NC(=O)[C@H](CC(C)C)NC(=O)[C@H](CCC(N)=O)NC(=O)[C@H](C)NC(=O)[C@H](Cc2c[nH]c3ccccc23)NC(=O)[C@H](Cc2ccc(O)cc2)NC(=O)[C@H](C(C)C)NC1=O)[C@@H](C)O (single isomer, unassigned) [compound 144]
- caspase 0.3 μM (Caspase 3): 1
- caspase 3 μM (Caspase 3): 4
- caspase 10 μM (Caspase 3): 10
- caspase 30 μM (Caspase 3): 16
- 6.25 μM % Lysed cells (1 h LDH) (SJSA-1 cells): 1%
- 25 μM % Lysed cells (1 h LDH) (SJSA-1 cells): −1%
- 50 μM % Lysed cells (1 h LDH) (SJSA-1 cells): 2%
